Measured values reported in the NIST ThermoML archive (doi:10.1021/je050165t).

Assays:
[1] = 101 kPa, Liquid
[2] = xn = mol fraction of the nth substance listed; settings: 101 kPa, Liquid

CCCCn1cc[n+](C)c1.F[P-](F)(F)(F)(F)F [1-butyl-3-methylimidazolium hexafluorophosphate]
[1]
Settings	mass density [kg/m3]	speed of sound [m/s]
298.15 K	1366.66	1442.4
303.15 K	1362.4	1430.6
308.15 K	1358.3	1419
313.15 K	1354.19	1407.5
318.15 K	1350.08	1396.3

CCCCn1cc[n+](C)c1.F[P-](F)(F)(F)(F)F [1-butyl-3-methylimidazolium hexafluorophosphate] + CC#N
[2]
Settings	mass density, 298.15 K [kg/m3]	mass density, 303.15 K [kg/m3]	mass density, 308.15 K [kg/m3]	mass density, 313.15 K [kg/m3]	mass density, 318.15 K [kg/m3]	speed of sound, 298.15 K [m/s]	speed of sound, 303.15 K [m/s]	speed of sound, 308.15 K [m/s]	speed of sound, 313.15 K [m/s]	speed of sound, 318.15 K [m/s]
x1 = 0.0453	878.471	873.235	866.821	862.713	857.428	1293.5	1275.1	1256.7	1238.4	1220.2
x1 = 0.0935	959.103	954.02	948.924	943.817	938.706	1308.9	1291.8	1274.6	1257.5	1240.5
x1 = 0.2007	1085.08	1080.25	1075.41	1070.58	1065.76	1341.9	1326.2	1310.9	1295.8	1280.9
x1 = 0.2966	1159.89	1155.23	1150.56	1145.9	1141.24	1366.5	1352.2	1338.1	1324	1310
x1 = 0.4241	1228.44	1223.91	1219.4	1214.89	1210.4	1389	1375.6	1362.3	1349.2	1336.3
x1 = 0.514	1263.52	1258.71	1254.64	1250.22	1245.81	1402	1389.2	1376.5	1363.8	1351.2
x1 = 0.6186	1294.95	1290.95	1286.59	1282.25	1277.92	1413.5	1401	1388.7	1376.5	1364.4
x1 = 0.7285	1320.82	1316.59	1312.32	1308.06	1303.82	1423.9	1411.8	1399.9	1388	1376.2
x1 = 0.7886	1332.55	1328.3	1324.05	1319.81	1315.59	1427.9	1415.9	1404.1	1392.4	1380.8
x1 = 0.8925	1350.78	1346.33	1342.2	1338.05	1333.89	1436.5	1424.5	1412.6	1401	1389.5
x1 = 1	1366.66	1362.4	1358.3	1354.19	1350.08	1442.4	1430.6	1419	1407.5	1396.3

CCCCn1cc[n+](C)c1.F[P-](F)(F)(F)(F)F [1-butyl-3-methylimidazolium hexafluorophosphate] + CO
[2]
Settings	mass density, 298.15 K [kg/m3]	mass density, 303.15 K [kg/m3]	mass density, 308.15 K [kg/m3]	mass density, 313.15 K [kg/m3]	mass density, 318.15 K [kg/m3]	speed of sound, 298.15 K [m/s]	speed of sound, 303.15 K [m/s]	speed of sound, 308.15 K [m/s]	speed of sound, 313.15 K [m/s]	speed of sound, 318.15 K [m/s]
x1 = 0.0223	852.499	847.778	843.039	838.277	833.49	1132.1	1116.9	1101.8	1086.7	1071.7
x1 = 0.0484	914.856	910.156	905.442	900.703	895.952	1155.5	1141.5	1127.5	1113.6	1099.7
x1 = 0.0786	972.943	968.272	963.583	958.877	954.071	1180.7	1167.7	1154.6	1141.6	1128.6
x1 = 0.1869	1111.37	1106.76	1102.15	1097.53	1092.91	1261.6	1249.8	1238	1226.1	1214.3
x1 = 0.2156	1136.5	1131.89	1127.3	1122.7	1118.12	1280.7	1268.9	1257.2	1245.5	1233.8
x1 = 0.3573	1223.91	1219.39	1214.87	1210.36	1205.87	1340.7	1329.1	1317.5	1306	1294.5
x1 = 0.4572	1263.6	1259.04	1254.81	1250.5	1246.03	1366.7	1355.1	1343.6	1332.1	1320.7
x1 = 0.6222	1308.96	1304.59	1300.24	1295.96	1291.78	1400.5	1388.9	1377.4	1365.9	1354.7
x1 = 0.7736	1337.5	1333.24	1328.99	1324.76	1320.54	1421.1	1409.5	1398	1386.6	1375.3
x1 = 0.9208	1357.7	1353.55	1349.39	1345.23	1341.08	1435.2	1423.5	1411.9	1400.6	1389.4
x1 = 1	1366.66	1362.4	1358.3	1354.19	1350.08	1442.4	1430.6	1419	1407.5	1396.3

CC#N [acetonitrile]
[1]
Settings	mass density [kg/m3]	speed of sound [m/s]
298.15 K	776.533	1278.6
303.15 K	771.116	1258.7
308.15 K	765.66	1238.7
313.15 K	760.162	1218.5
318.15 K	754.462	1198.3

CC#N [acetonitrile] + CCCCn1cc[n+](C)c1.F[P-](F)(F)(F)(F)F
[2], x2 = 0
Settings	mass density [kg/m3]	speed of sound [m/s]
298.15 K	776.533	1278.6
303.15 K	771.116	1258.7
308.15 K	765.66	1238.7
313.15 K	760.162	1218.5
318.15 K	754.462	1198.3

CO [methanol]
[1]
Settings	mass density [kg/m3]	speed of sound [m/s]
298.15 K	786.531	1102.7
303.15 K	781.808	1086.4
308.15 K	777.066	1070.1
313.15 K	772.283	1054
318.15 K	767.474	1037.9

CO [methanol] + CCCCn1cc[n+](C)c1.F[P-](F)(F)(F)(F)F
[2], x2 = 0
Settings	mass density [kg/m3]	speed of sound [m/s]
298.15 K	786.531	1102.7
303.15 K	781.808	1086.4
308.15 K	777.066	1070.1
313.15 K	772.283	1054
318.15 K	767.474	1037.9
